The source of these data is patent publication EP0071892A2, “Phospholipid derivatives, process for preparation thereof and pharmaceutical composition of the same” (priority 1981, dated 1983).

Test [1] concerns Fibrosarcoma Meth A. Kind of test: Test Method B: intrapleurally inoculated Meth A tumor in mice, injection into pleural cavity, mean survival time. The format is in vivo, BALB/c mice. Set-up: dose or concentration left out as unconfirmed. The note with it: for Anti-tumor activity (%) *d: comparison of mean survival time of medicated group (T) and control group (C), into pleural cavity three times; for Mean survival time: into pleural cavity three times (before 14 days, after 1 hour and after 3 days of tumor implantation), 5 x 10^5 Meth A cells intrapleurally.
Procedure: Groups of eight female BALB/c mice, aged 8-9 weeks and weighing 18.0-22.5 g were used.
Fibrosarcoma Meth A (hereinafter referred to as Meth A) was successively transferred every 7 days into BALB/c mice by intraperitoneal inoculation of the ascites cells thereof and the Meth A in the ascites cells as harvested 6 or 7 days after the inoculation was used as tumor cells.
Each of the BALB/c mice was inoculated intrapleurally with 5 x 10^5 Meth A cells in 0.1 ml Hanks solution.
Test compound was dissolved in phosphate buffer saline solution, and was injected into pleural cavity to each of the mice in doses of 100 pg/0.05 ml/mouse three times, i.e. before 14 days, after 1 hour and after 3 days of tumor implantation.
The antitumor activity of the test compound was estimated by comparing mean survival time of the two groups. • T : Mean survival time of the medicated group • C : Mean survival time of the control group

Test [2] has as its system Fibrosarcoma Meth A. Briefly: Test Method A: intradermally inoculated Meth A tumor in mice, intratumoral injection of test compound, tumor growth inhibition. The note with it: 100 µg/mouse intratumorally once daily from Day 1 to Day 4 postimplant; for responders at 0.1 mg / inhibition in vivo at 0.1 mg: Meth-A; for responders at 0.1 mg: read-out: Ratio of tumor free mice [Number of tumor free mice/ Number of mice used as a group] (converted); for inhibition in vivo at 0.1 mg: Mus musculus, read-out: Tumor growth inhibition (%) [(1-T/c)x100]; for Mean of two diameters of the growing tumor: 1 x 10^5 Meth A cells intradermally. It counts as in vivo, BALB/c mice. How it is done:
Groups of six female BALB/c mice, aged 12 weeks and weighing 19 - 21 g were used.
Fib,rosarcoma Meth A (hereinafter referred to as Meth A) was successively transferred every 7 days into BALB/c mice by intraperitoneal inoculation of the ascites cells thereof and the Meth A in the ascites cells as harvested 6 days after the inoculation was used as tumor cells.
Each of the BALB/c mice was inoculated intradermally with 1 x 10^5 Meth A cells in 0.05 ml Hanks solution.
Test compound was dissolved in 0.5% methylcellulose saline solution, and was intratumorally injected to each of the mice in doses of 100 µg/mouse once daily from Day 1 to Day 4 postimplant.
The control group was given with a vehicle alone in the same way.
The antitumor effectiveness of the test compound was estimated by tumor growth inhibition (1-T/C). • T: Mean diameter of the growing tumor of the medicated group • C: Mean diameter of the growing tumor of the control group

Read-outs that look alike come from different tables or passages of the source.

For `CCCCCCCCCCCCCCCCCCOCC(COP(=O)([O-])OCC[n+]1cccc(C)c1)OC` (racemic) [3-(10), (rac)-1-0-Octadecyl-2-0-methyl-glycerol-3-(2-(3-methyl-1-pyridinio)ethyl]phosphate], in the test on Fibrosarcoma Meth A [1], the “Anti-tumor activity (%) *d” value is given as 364% and the Mean survival time was 25.5 days.
For `CCCCCCCCCCCCCCCCCCOCC(COP(=O)([O-])OCC[n+]1cccn1C)OC` (racemic) [3-(18), (rac)-1-0-Octadecyl-2-0-methyl-glycerol-3-[2-(1-methyl-2-pyrazolio)ethyl]phosphate] the same measures were 325% and 19.5 days.
The corresponding values for `CCCCCCCCCCCCCCCCCCOCC(COP(=O)(O)OCCN1CCN(C)CC1)OC` (racemic) [3-(16), (rac)-1-O-Octadecyl-2-0-methyl-glycerol-3-[2-(4-methyl-l-piperazinyl)ethyl]phosphate] are 350% and 21.0 days.
Take `CCCCCCCCCCCCCCCCOCC(COP(=O)(O)OCCN1CCN(C)CC1)OC` (racemic) [3-(2), (rac)-1-0-Hexadecyl-2-0-methyl-glycerol-3-[2-(4-methyl-l-piperazinyl)ethyl]phosphate]: in the test with Fibrosarcoma Meth A [1], the “Anti-tumor activity (%) *d” value is given as 350% and the Mean survival time is 21.0 days.
The corresponding values for `CCCCCCCCCCCCCCCCCCOCCCOP(=O)([O-])OCC[n+]1ccccc1` [3-(29), (rac)-1-0-Octadecyl-1,3-propanediol-3-[2-(1-pyridinio)-ethyl]phosphate] are 264% and 18.5 days.
`CCCCCCCCCCCCCCCCCCOCC(COP(=O)([O-])OCC[n+]1ccn(C)c1)OC` (racemic) [3-(25), (rac)-1-0-Octadecyl-2-0-methyl-glycerol-3-[2-(1-methyl-3-imidazolio)ethyl]phosphate]: in the test on Fibrosarcoma Meth A [2] (Day 21), the “Ratio of tumor free mice [Number of tumor free mice/ Number of mice used as a group]” value (from here on “Ratio of tumor free mice”) is 5/6 and the inhibition in vivo at 0.1 mg was 93%. For the same compound, in the test with Fibrosarcoma Meth A [2] (Day 14), the responders at 0.1 mg is 83.3% and the inhibition in vivo at 0.1 mg was determined as 94%.
Turning to `CCCCCCCCCCCCCCCCCCOCC(COP(=O)(O)OCCN1CCN(CC)CC1)OC` (racemic) [3-(3), (rac)-1-0-Octadecyl-2-0-methyl-glycerol-3-[2-(4-ethyl-l-piperazinyl)ethyl]phosphate], in the test on Fibrosarcoma Meth A [1], the “Anti-tumor activity (%) *d” value stood at 317% and the Mean survival time stood at 19.0 days.
For `CCCCCCCCCCCCCCCCCCOCC(COP(=O)([O-])OCC[n+]1ccccc1)NC(=O)NC` (racemic) [11-(2), (rac)-1-0-Octadecyl-2-(N'-methylureido)-1,3-propanediol-3-[2-(l-pyridinio)ethyl]phosphate] the same measures were 350% and 21.0 days.
Take `CCCCCCCCCCCCCCCCCCOCC(COP(=O)([O-])OCC[n+]1cnn(C)c1)OC` (racemic) [3-(21), (rac)-1-0-Octadecyl-2-0-methyl-glycerol-3-[2-(1-methyl-1,2,4-triazol-4-io)ethyl]phosphate]: in the test on Fibrosarcoma Meth A [2] (Day 14), the “Mean of two diameters of the growing tumor” value worked out at 0 mm, the responders at 0.1 mg is 100% and the inhibition in vivo at 0.1 mg is 100%. Also, in the test with Fibrosarcoma Meth A [2] (Day 21), the “Ratio of tumor free mice” value was 6/6, the “Mean of two diameters of the growing tumor” value is given as 0 mm and the inhibition in vivo at 0.1 mg worked out at 100%.
On to `CCCCCCCCCCCCCCCCCCOCC(COP(=O)([O-])OCC[n+]1ccccc1)SC` (racemic) [3-(31), (rac)-1-0-Octadecyl-2-methylthio-1,3-propanediol-3-[2-(l-pyridinio)ethyl]phosphate], for which, in the test with Fibrosarcoma Meth A [1], the “Anti-tumor activity (%) *d” value was determined as 358% and the Mean survival time came out at 21.5 days.
With `CCCCCCCCCCCCCCCCCCOCC(Cl)COP(=O)([O-])OCC[n+]1ccccc1` (racemic) [9-(4), (rac)-1-0-Octadecyl-2-chloro-1,3-propanediol-3-[2-(1-pyridinio)ethyl]phosphate], in the test with Fibrosarcoma Meth A [2] (Day 21), the “Ratio of tumor free mice” value is on record as 4/6 and the inhibition in vivo at 0.1 mg is 86%. In the test on Fibrosarcoma Meth A [2] (Day 14), the responders at 0.1 mg was 66.7% and the inhibition in vivo at 0.1 mg turned out to be 92%.
As for `CCCCCCCCCCCCCCCCOCC(COP(=O)([O-])OCC[n+]1ccccc1)OCc1ccccc1` (racemic) [3-(26), (rac)-l-0-Hexadecyl-2-0-benzyl-glycerol-3-[2-(l-pyridinio)ethyl]phosphate], in the test on Fibrosarcoma Meth A [1], the “Anti-tumor activity (%) *d” value was over 650% and the Mean survival time is over 39.0 days.
Consider `CCCCCCCCCCCCCCCCCCOCC(COP(=O)([O-])OCC[n+]1ccccc1)OCC` (racemic) [3-(19), (rac)-1-0-Octadecyl-2-0-ethyl-glycerol-3-[2-(1-pyridinio)ethyl]phosphate], for which, in the test on Fibrosarcoma Meth A [1], the “Anti-tumor activity (%) *d” value is 317% and the Mean survival time was found to be 19.0 days.
Consider `CCCCCCCCCCCCCCCCCCOCC(COP(=O)([O-])OCC[n+]1ccccc1)NC(=O)OCC` (racemic) [10-(6), (rac)-1-0-Octadecyl-2-ethoxycarbonylamino-1,3-propanediol-3-[2-(1-pyridinio)ethyl]phosphate], for which, in the test with Fibrosarcoma Meth A [1], the “Anti-tumor activity (%) *d” value was under 400% and the Mean survival time was found to be 24.0 days.
For `CCCCCCCCCCCCCCCCCCOCC(COP(=O)([O-])OCC[n+]1ccsc1)OC` (racemic) [3-(22), (rac)-1-O-Octadecyl-2-0-methyl-glycerol-3-[2-(3-thiazolio)ethyl]phosphate], in the test on Fibrosarcoma Meth A [2] (Day 21), the “Ratio of tumor free mice” value is given as 3/6 and the inhibition in vivo at 0.1 mg stood at 68%. In the test on Fibrosarcoma Meth A [2] (Day 14), the responders at 0.1 mg was 50% and the inhibition in vivo at 0.1 mg is 77%.
Regarding `CCCCCCCCCCCCCCCCCCOCC(COP(=O)([O-])OCC[n+]1ccccc1)Sc1nncs1` (racemic) [8-(4), (rac)-1-0-Octadecyl-2-(1,3,4-thiadiazolyl-2-thio)-1,3-propanediol-3-[2-(1-pyridinio)ethyl]phosphate], in the test with Fibrosarcoma Meth A [1], the “Anti-tumor activity (%) *d” value came to 417% and the Mean survival time came to 25.0 days.
“(rac)-1-O-Octadecyl-2-0-methyl-glycerol-3-[2-(N-methyl-4-morpholino)ethyl]phosphate [3-(15)]”: in the test with Fibrosarcoma Meth A [1], the “Anti-tumor activity (%) *d” value is listed as 433% and the Mean survival time came to 26.0 days.
Regarding `CCCCCCCCCCCCCCCCCCOCC(COP(=O)([O-])OCCNC(=O)C[n+]1ccccc1)OC` (racemic) [5-(2), (rac)-1-0-Octadecyl-2-0-methyl-glycerol-3-[2-(1-pyridinioacetylamino)ethyl]phoshate], in the test with Fibrosarcoma Meth A [1], the “Anti-tumor activity (%) *d” value came out at 364% and the Mean survival time stood at 25.5 days.
The corresponding values for `CCCCCCCCCCCCCCCCCCOCC(COP(=O)([O-])OCC[N+](C)(C)C)OC` (racemic) [*e, reference compound] are 242% and 14.5 days.
For `CCCCCCCCCCCCCCCCCCOCC(COP(=O)(O)OCCn1ccnc1)OC` (racemic) [3-(13), (rac)-1-0-Octadecyl-2-0-methyl-glycerol-3-[2-(1-imidazolyl)ethyl]phosphate], in the test on Fibrosarcoma Meth A [2] (Day 21), the “Ratio of tumor free mice” value was 0/6 and the inhibition in vivo at 0.1 mg was determined as 31%. In the test on Fibrosarcoma Meth A [2] (Day 14), the responders at 0.1 mg was 0% and the inhibition in vivo at 0.1 mg turned out to be 37%.
For the compound `CCCCCCCCCCCCCCCCCCOCC(COP(=O)(O)OCCN1CCN(CCO)CC1)OC` (racemic) [3-(7), (rac)-1-0-Octadecyl-2-0-methyl-glycerol-3-[2-[4-(2-hydroxyethyl)-1-piperazinyl]ethyl]phosphate], in the test with Fibrosarcoma Meth A [1], the “Anti-tumor activity (%) *d” value was found to be 325% and the Mean survival time was 19.5 days.
The corresponding values for `CCCCCCCCCCCCCCCCCCOCC(COP(=O)(O)OCCN1CCCCC1)OC` (racemic) [3-(14), (rac)-l-O-Octadecyl-2-0-methyl-glycerol-3-(2-piperidinoethyl)phosphate] are 325% and 19.5 days.
As to `CCCCCCCCCCCCCCCCCCOCC(O)COP(=O)([O-])OCC[n+]1ccccc1` (racemic) [3-(30), (rac)-1-0-Octadecyl-glycerol-3-[2-(1-pyridinio)ethyl]-phosphate], in the test with Fibrosarcoma Meth A [2] (Day 21), the “Ratio of tumor free mice” value was 4/6 and the inhibition in vivo at 0.1 mg was determined as 84%. Besides, in the test on Fibrosarcoma Meth A [2] (Day 14), the responders at 0.1 mg is 66.7% and the inhibition in vivo at 0.1 mg is 85%.
For `CCCCCCCCCCCCCCCCCCOCC(COP(=O)([O-])OCC[n+]1cccc(C(=O)OCC)c1)OC` (racemic) [3-(23), (rac)-1-0-Octadecyl-2-0-methyl-glycerol-3-[2-(3-ethoxycarbonyl-1-pyridinio)ethyl]phosphate], in the test on Fibrosarcoma Meth A [2] (Day 21), the “Ratio of tumor free mice” value is on record as 3/6 and the inhibition in vivo at 0.1 mg is 70%. In the test on Fibrosarcoma Meth A [2] (Day 14), the responders at 0.1 mg is 50% and the inhibition in vivo at 0.1 mg was 77%.
